Article PMC7284125, “Identification of annotated bioactive molecules that impair motility of the blood fluke Schistosoma mansoni” (International Journal for Parasitology: Drugs and Drug …, 2020)
Where two headings read alike, the source gives them in different places.

Assays:
[1] = system: S. mansoni schistosomulae; experiment: Phenotypic primary screen assay on schistosomulae (phenotype; viability by methylene blue dye exclusion); type: cell-based, Schistosoma mansoni; conditions: for effect on viability of schistosomulae in words: 24 h incubation, five days; for Phenotype: three-day-old schistosomulae, 10 μM, 24 h, estimated 5 days post compound exposure
Outline: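 Parasites lacking contraction/relaxation cycles and showing dark internal granulations counted as dead. Movement and body shape were compared with DMSO-treated controls under a stereo microscope at 24 h and at five days of exposure. Larvae came from infected snails shed under light for 2 h at 32 °C.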

[2] = system: S. mansoni schistosomulae; experiment: Motility assay on schistosomulae (pixel displacement, relative to DMSO control); type: cell-based, Schistosoma mansoni; conditions: for activity at 1 µM: Schistosoma mansoni, read-out: Fractional motility
Outline: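 Mechanically transformed S. mansoni schistosomulae (200/well) in Opti-MEM with 5% dialyzed FBS were exposed to compounds at 1 and 10 μM for 24 h at 37 °C, 5% CO2. Motility filmed at 10 frames/s for 1 min and quantified by pixel displacement relative to DMSO-treated controls.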

S. mansoni adult worms = experiment: Motility assay on adult parasites (pixel displacement, relative to DMSO control); type: cell-based, Schistosoma mansoni; conditions: 10 μM; for motility phenotype in words: adults, long-term after washout
Outline: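 Unpaired adult worms from mice 6 weeks post-infection kept in OPTI-MEM with 5% dialyzed FBS and exposed to compounds at 1 and 10 μM for 24 h. Motility filmed 1 min at 10 frames/s, quantified by pixel displacement versus DMSO-treated worms; recovery followed up to five days after washout.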

[3] = system: S. mansoni schistosomulae; experiment: Phenotypic primary screen assay on schistosomulae (phenotype; viability by methylene blue dye exclusion); type: cell-based; conditions: Schistosoma mansoni; three-day-old schistosomulae, 10 μM, 24 h; calculated 5 days post compound exposure; read-out: Viability (%)
schistosomes = system: schistosomes; parameters: method as in de Almeida et al., 2016; conditions: 12.5–100 μM; ref de Almeida et al., 2016; cited from earlier work
schistosomulae [4] = system: schistosomulae; parameters: method as in El-Sakkary et al., 2018; conditions: 20 min exposure, 10 μM; ref El-Sakkary et al., 2018; cited from earlier work
schistosomulae [5] = system: schistosomulae; parameters: method as in Panic et al., 2015b; conditions: 72 h incubation at 10 μM; ref Panic et al., 2015b; cited from earlier work
SmD2 = SmD2 (Schistosoma mansoni, UniProt G4LUJ1); experiment: cell-based; type: cell-based
human CaSR = system: human CaSR; parameters: method as in Nemeth et al., 2001; conditions: ref Nemeth et al., 2001; cited from earlier work
[6] = parameters: method as in Rybczynska et al., 2006; conditions: 1 mg/kg, normotensive rats; ref Rybczynska et al., 2006; cited from earlier work
[7] = 120 h, schistosomulae, secondary screen, 24h exposure, read at D5, 1 µM
[8] = schistosomulae, secondary screen, 24h exposure, read at D1, 1 µM
[9] = schistosomulae, 1h exposure, read at D1, 10 µM
[10] = schistosomulae, 1h exposure, read at D5, 10 µM
[11] = schistosomulae, 3h exposure, read at D1, 10 µM
[12] = schistosomulae, 3h exposure, read at D5, 10 µM
[13] = schistosomulae, 6h exposure, read at D1, 10 µM
[14] = schistosomulae, secondary screen, 24h exposure, read at D1, 10 µM
[15] = schistosomulae, secondary screen, 24h exposure, read at D5, 10 µM
[16] = secondary screen, D1, Female adult worms
[17] = secondary screen, D1, Male adult worms
[18] = secondary screen, D5, Female adult worms
[19] = secondary screen, D5, Male adult worms

SmD2, sequence (G4LUJ1 entry or part of it): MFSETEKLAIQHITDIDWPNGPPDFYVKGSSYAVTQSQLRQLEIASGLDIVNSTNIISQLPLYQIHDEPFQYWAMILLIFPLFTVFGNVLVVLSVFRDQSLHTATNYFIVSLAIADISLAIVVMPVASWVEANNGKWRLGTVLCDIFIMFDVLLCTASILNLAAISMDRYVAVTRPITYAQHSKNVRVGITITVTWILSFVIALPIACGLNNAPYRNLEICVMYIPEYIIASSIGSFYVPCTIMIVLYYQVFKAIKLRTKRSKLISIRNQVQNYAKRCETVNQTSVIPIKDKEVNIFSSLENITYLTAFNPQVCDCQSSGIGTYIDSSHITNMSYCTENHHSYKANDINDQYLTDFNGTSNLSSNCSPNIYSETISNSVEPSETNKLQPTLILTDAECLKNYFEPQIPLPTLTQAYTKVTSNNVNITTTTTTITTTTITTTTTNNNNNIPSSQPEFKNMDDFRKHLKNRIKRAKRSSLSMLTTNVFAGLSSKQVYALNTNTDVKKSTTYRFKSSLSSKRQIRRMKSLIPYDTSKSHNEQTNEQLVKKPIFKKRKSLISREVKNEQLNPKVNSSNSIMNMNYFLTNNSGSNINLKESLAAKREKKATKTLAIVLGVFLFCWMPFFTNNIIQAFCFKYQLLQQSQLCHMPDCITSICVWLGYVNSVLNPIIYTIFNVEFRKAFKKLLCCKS

With `C=C1C(=O)O[C@H]2[C@H]1CC/C(C)=C/CC[C@@]1(C)O[C@@H]21` [(-)-Parthenolide] the “effect on viability of schistosomulae in words” value (from here on “effect on viability”) [1] was “total schistosomulicid action”, the Phenotype [1] was “big, dark, granulated” and the activity at 1 µM [2, 7] was -16%. It also gave an activity at 1 µM [2, 8] of -3%, a Fractional motility [2, 9] of -0.61 and a Fractional motility [2, 10] of -0.72. It also gave a Fractional motility [2, 11] of -0.27, a Fractional motility [2, 12] of -0.10 and a Fractional motility [2, 13] of 3.66. It also gave a Fractional motility ([2]; schistosomulae, 6h exposure, read at D5, 10 µM) of -0.86, a Fractional motility [2, 14] of 0.67 and a Fractional motility [2, 15] of -0.99. The hypomotility (S. mansoni adult worms; adult male and female parasites, long-term) was 49.5%, the “motility phenotype in words” value (S. mansoni adult worms) was “severely paralyzed adults” and the Fractional motility (S. mansoni adult worms; [16]) was -0.36. It also gave a Fractional motility (S. mansoni adult worms; [17]) of 0.14, a Fractional motility (S. mansoni adult worms; [18]) of -0.65 and a Fractional motility (S. mansoni adult worms; [19]) of -0.34. The viability at 10 µM [3] was 0% and the mortality (schistosomes) was 100%.

With `CN(C)CCCN1c2ccccc2Sc2ccc(Cl)cc21` [Chlorpromazine] the Phenotype [1] was “elongated”, the “hypermotility compared to control schistosomulae” value ([2]; 10 μM) was greater than 10 fold and the activity at 1 µM [2, 7] was 95%. It also gave an activity at 1 µM [2, 8] of 785%, a Fractional motility [2, 14] of 13.78 and a Fractional motility [2, 15] of 3.15. For the same compound, the Fractional motility (S. mansoni adult worms; [16]) was 0.57, the Fractional motility (S. mansoni adult worms; [17]) was 2.38 and the Fractional motility (S. mansoni adult worms; [18]) was -0.45. For the same compound, the Fractional motility (S. mansoni adult worms; [19]) was 0.24, the viability at 10 µM [3] was 96% and the “peak motility relative to control schistosomulae” value (schistosomulae [4]) was “exceeding 50 fold”.

With `COC(=O)C1=C(C)NC(C)=C(C(=O)OCCN2CCN(C(c3ccccc3)c3ccccc3)CC2)C1c1cccc([N+](=O)[O-])c1` (centres unmarked) [Manidipine] the “effect on viability” value [1] was “no larval mortality was observed”, the Phenotype [1] was “abnormal morphology, big, granulated” and the activity at 1 µM [2, 7] was -59%. The activity at 1 µM [2, 8] was -79%, the Fractional motility [2, 9] was -0.94 and the Fractional motility [2, 10] was -0.59. The Fractional motility [2, 11] was -0.33, the Fractional motility [2, 12] was -0.75 and the Fractional motility [2, 13] was -0.74. For the same compound, the hypomotility ([2]; schistosomulae, all tested concentrations until five days after drug washout) was no less than 59%, the Fractional motility [2, 14] was -0.78 and the Fractional motility [2, 15] was -0.85. For the same compound, the “motility in extended assay with reduced incubation times, in words” value ([2]; three-day old schistosomulae, incubation 1 h, 3 h, 6 h) was “significant and sustained hypomotility”, the “motility phenotype in words” value (S. mansoni adult worms) was “strongly impaired movement” and the Fractional motility (S. mansoni adult worms; [16]) was 0.19. The Fractional motility (S. mansoni adult worms; [17]) was -0.20, the Fractional motility (S. mansoni adult worms; [18]) was -0.91 and the Fractional motility (S. mansoni adult worms; [19]) was -0.98. For the same compound, the viability at 10 µM [3] was 97% and the “activity on schistosomulae in words” value (schistosomulae [5]) was “schistosomulicidal”.

With `CC(C)(Cc1ccc2ccccc2c1)NC[C@@H](O)COc1cccc(Cl)c1C#N` [NPS-2143] the “effect on viability” value [1] was “no effect on viability”, the Phenotype [1] was “big, granulated” and the Fractional motility ([2]; 1h, D1, 10 µM) was -0.86. The Fractional motility ([2]; 1h, D5, 10 µM) was -0.00164, the Fractional motility ([2]; 3h, D1, 10 µM) was 0.27 and the Fractional motility ([2]; 3h, D5, 10 µM) was -0.84. For the same compound, the Fractional motility ([2]; 6h, D1, 10 µM) was 14.69, the Fractional motility ([2]; 6h, D5, 10 µM) was -0.27 and the Fractional motility ([2]; NPS-2143 and analogs, 24h, D1, 1 µM) was -0.50. For the same compound, the Fractional motility ([2]; NPS-2143 and analogs, 24h, D1, 10 µM) was 49.26, the Fractional motility ([2]; NPS-2143 and analogs, 24h, D5, 1 µM) was -0.09 and the Fractional motility ([2]; NPS-2143 and analogs, 24h, D5, 10 µM) was -0.99. The activity at 1 µM ([2]; 120 h, Selleckchem customized library secondary screen, 24h, D5, 1 µM) was -9%, the activity at 1 µM ([2]; Selleckchem customized library secondary screen, 24h, D1, 1 µM) was -50% and the Fractional motility ([2]; Selleckchem customized library secondary screen, 24h, D1, 10 µM) was 49.26. For the same compound, the Fractional motility ([2]; Selleckchem customized library secondary screen, 24h, D5, 10 µM) was -0.99, the “hypermotility relative to control” value ([2]; schistosomulae, after 24 h incubation) was “up to 50 fold” and the “motility phenotype in words” value ([2]; schistosomulae, long-term, five days after compound washout) was “complete paralysis”. It also gave a Fractional motility (S. mansoni adult worms; adult female worms, D1) of -0.33, a Fractional motility (S. mansoni adult worms; adult female worms, D5) of -0.92 and a Fractional motility (S. mansoni adult worms; adult male worms, D1) of -0.52. The Fractional motility (S. mansoni adult worms; adult male worms, D5) was -0.30, the Fractional motility (S. mansoni adult worms; [16]) was -0.33 and the Fractional motility (S. mansoni adult worms; [17]) was -0.52. The Fractional motility (S. mansoni adult worms; [18]) was -0.92, the Fractional motility (S. mansoni adult worms; [19]) was -0.30 and the inhibition at 10 µM (SmD2; HEK293, SmD2 cells, 10 μM compound, 50 μM EPN, read-out: inhibition of EPN-evoked luminescence) was 91.1%. The IC50 (SmD2; inhibition of EPN-evoked luminescence, concentration-response assay, read-out: IC50) was 2.53 ± 0.28 nM, the viability at 10 µM [3] was 82% and the IC50 (human CaSR) was 43 nM. For the same compound, the “effect on blood pressure” value [6] was “significantly increases blood pressure”.
